# Values of other authors as cited in patent US20080095853A1, “Modified Release For Proton Pump Inhibitors” (priority 2004, published 2008).
# Tested on: gastric acid
# Details: splitting a 40 mg dose into 20 mg bid
smiles,measurement,value
COc1ccc2nc([S@@+]([O-])Cc3ncc(C)c(OC)c3C)[nH]c2c1 [esomeprazole],nocturnal gastric acid suppression,significantly improved
